Common to all, as to assay: Bliss excess, mean over the matrix (fraction); higher = more synergy
In test [1] the test system is 5637 (Bladder Carcinoma). The procedure, abridged:
(§1)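 Cell lines in DMEM/F12 or RPMI with 10% FBS were plated in 1536-well plates, held 24 hours at 37°C, 5% CO2, then given two-drug dose matrices for 72 hours (DMSO typically 0.2%). Viability was read by CellTiter-Glo 2.0 luminescence and scaled as inhibition from 0 (vehicle wells) to 1 (blank wells). Combination Emax is the second-highest inhibition in the matrix; Bliss excess is observed combination effect minus expected EA + EB − EA·EB, EA and EB being single-agent effects.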

Test [2] deals with A101D (Melanoma). In a few lines:
as §1

Test [3] deals with AU565 (Breast Carcinoma). The procedure, abridged:
as §1

The subject of test [4] is CA46 (Burkitt's Lymphoma). In a few lines: as §1
The subject of test [5] is CAL-27 (Oral Cavity Carcinoma). The procedure, abridged: as §1
Test [6] deals with COLO-792 (Melanoma). In a few lines: as §1
In test [7] the test system is DMS-53 (Small Cell Lung Carcinoma). In a few lines:
as §1

Test [8] deals with DU-4475 (Breast Carcinoma). The procedure, abridged: as §1
In test [9] the test system is ESO26 (Esophageal Adenocarcinoma). The procedure, abridged: as §1
In test [10] the test system is EW-16 (Ewing's Sarcoma). In a few lines:
as §1

Test [11] deals with GA-10 (Burkitt's Lymphoma). In a few lines: as §1
In test [12] the test system is HCC1428 (Breast Carcinoma). The procedure, abridged:
as §1

The test system of test [13] is HT55 (Colorectal Carcinoma). The procedure, abridged: as §1
The subject of test [14] is JIMT-1 (Breast Carcinoma). In a few lines: as §1
Test [15] has as its system Jurkat (T-Lymphoblastic Leukemia). In a few lines: as §1
The subject of test [16] is KP-N-YN (Neuroblastoma). In a few lines:
as §1

Test [17] relates to NCI-H2228 (Lung Adenocarcinoma). The procedure, abridged:
as §1

Test [18] deals with NCI-H716 (Colorectal Carcinoma). The procedure, abridged:
as §1

Test [19] deals with OACp4C (Esophageal Adenocarcinoma). In a few lines: as §1
The test system of test [20] is RH-41 (Rhabdomyosarcoma). The procedure, abridged:
as §1

On to `CN(CCO)CC[C@H](CSc1ccccc1)Nc1ccc(S(=O)(=O)NC(=O)c2ccc(N3CCC([C@@H](O)c4ccccc4-c4ccc(Cl)cc4)CC3)cc2)cc1S(=O)(=O)C(F)(F)F` [AZD4320] + C1CN(CCC1(C(=O)N[C@@H](CCO)C2=CC=C(C=C2)Cl)N)C3=NC=NC4=C3C=CN4 [Capivasertib] (first compound max 1 µM, 7x7, partner max 3 µM), for which the Bliss excess in test [1] was -0.0471; in test [2] it was -0.0695; in [3] it was 0.0161; in test [4], -0.0496; in test [5] it was -0.0362; in test [6], 0.0021. For the same compound, the Bliss excess in [7] is -0.0195; in [8], 0.069; in test [9] it was -0.0271; in [10], -0.0469; in [11], -0.0283; in [12] it was -0.0092. For the same compound, the Bliss excess in test [13] was -0.0469; in test [14], -0.0424; in test [15] it was -0.0203; in test [16] it was -0.0237; in test [17] it was -0.0392; in test [18], -0.0262. Also, the Bliss excess in test [19] is 0.0209; in test [20] it was -0.0159.

For `CN(CCO)CC[C@H](CSc1ccccc1)Nc1ccc(S(=O)(=O)NC(=O)c2ccc(N3CCC([C@@H](O)c4ccccc4-c4ccc(Cl)cc4)CC3)cc2)cc1S(=O)(=O)C(F)(F)F` [AZD4320] + C=CCn1c(=O)c2cnc(Nc3ccc(N4CCN(C)CC4)cc3)nc2n1-c1cccc(C(C)(C)O)n1 [AZD1775] (first compound max 1 µM, partner max 1 µM), the Bliss excess was 0.0437 in test [1]; 0.14 in [2]; 0.0571 in test [3]; 0.0175 in test [4]; -0.0226 in test [5]; 0.0939 in test [6]. For the same compound, the Bliss excess in test [7] was 0.0817; in test [8] it was 0.0013; in test [9], -0.0318; in test [10] it was 0.033; in test [11], -0.0167; in test [12], 0.0369. Also, the Bliss excess in test [13] was 0.0167; in test [14], 0.0363; in test [15], 0.0568; in test [16], 0.0631; in test [17], -0.0344; in test [18], 0.0021. Further, the Bliss excess is -0.0071 in [19] and 0.0873 in test [20].

As for `CN(CCO)CC[C@H](CSc1ccccc1)Nc1ccc(S(=O)(=O)NC(=O)c2ccc(N3CCC([C@@H](O)c4ccccc4-c4ccc(Cl)cc4)CC3)cc2)cc1S(=O)(=O)C(F)(F)F` [AZD4320] + CC(=O)O[C@H]1C(=O)[C@@]2(C)[C@H]([C@H](OC(=O)c3ccccc3)[C@]3(O)C[C@H](OC(=O)[C@H](O)[C@@H](NC(=O)c4ccccc4)c4ccccc4)C(C)=C1C3(C)C)[C@]1(OC(C)=O)CO[C@@H]1C[C@@H]2O [Paclitaxel] (first compound max 1 µM, 7x7, partner max 3 µM), the Bliss excess in test [16] turned out to be 0.0826.

As to `CN(CCO)CC[C@H](CSc1ccccc1)Nc1ccc(S(=O)(=O)NC(=O)c2ccc(N3CCC([C@@H](O)c4ccccc4-c4ccc(Cl)cc4)CC3)cc2)cc1S(=O)(=O)C(F)(F)F` [AZD4320] + CCN(CCO)CCCOc1ccc2c(Nc3cc(CC(=O)Nc4cccc(F)c4)[nH]n3)ncnc2c1 [AZD2811] (first compound max 1 µM, 7x7, partner max 1 µM), the Bliss excess in [1] was -0.0117; in test [2] it was 0.0418; in test [3] it was 0.0712; in test [4], -0.0191; in [5], 0.0635; in test [6] it was 0.0627. Moreover, the Bliss excess was -0.0067 in test [7]; 0.0738 in [8]; -0.0266 in test [9]; 0.14 in [10]; -0.0203 in test [11]; 0.16 in [12]. Moreover, the Bliss excess is -0.0005 in [13]; 0.0004 in test [14]; 0.0105 in test [15]; 0.0516 in test [16]; -0.0025 in test [17]; -0.0242 in [18]. Further, the Bliss excess in test [19] amounted to 0.0011; in [20], 0.0867.

`CN(CCO)CC[C@H](CSc1ccccc1)Nc1ccc(S(=O)(=O)NC(=O)c2ccc(N3CCC([C@@H](O)c4ccccc4-c4ccc(Cl)cc4)CC3)cc2)cc1S(=O)(=O)C(F)(F)F` [AZD4320] + C[C@@H]1COCCN1C2=NC(=NC(=C2)C3(CC3)[S@](=N)(=O)C)C4=C5C=CNC5=NC=C4 [AZD6738] (first compound max 1 µM, 7x7, partner max 10 µM): the Bliss excess is -0.05 in test [1]; 0.046 in test [2]; 0.0419 in [3]; -0.0275 in test [4]; -0.0544 in test [5]; -0.105 in test [6]. Moreover, the Bliss excess in test [7] is 0.0446; in test [8] it was 0.0521; in [9], -0.0439; in test [10], -0.101; in test [11], -0.0075; in test [12] it was 0.0184. The Bliss excess is 0.0093 in [13]; 0.0079 in [14]; -0.0112 in test [15]; -0.019 in test [16]; -0.0628 in [17]; -0.0311 in [18]. The values for the Bliss excess in test [19] and in [20] were -0.036 and -0.0086, respectively.

Take `CN(CCO)CC[C@H](CSc1ccccc1)Nc1ccc(S(=O)(=O)NC(=O)c2ccc(N3CCC([C@@H](O)c4ccccc4-c4ccc(Cl)cc4)CC3)cc2)cc1S(=O)(=O)C(F)(F)F` [AZD4320] + C[C@@H](Nc1cc(F)cc(F)c1)c1cc(C(=O)N(C)C)cc2c(=O)cc(N3CCOCC3)oc12 [AZD8186] (first compound max 1 µM, 7x7, partner max 3 µM): the Bliss excess in test [1] is -0.0028; in [2], 0.0831; in [3], 0.035; in test [4], 0.0317; in test [5], 0.0005; in test [6], 0.0763. In addition, the Bliss excess was 0.0138 in test [7]; 0.0131 in test [8]; 0.0217 in test [9]; -0.0129 in [10]; 0.0166 in [11]; 0.0149 in [12]. For the same compound, the Bliss excess is -0.0003 in test [13]; 0.0064 in test [14]; 0.0576 in [15]; -0.0097 in [16]; -0.0301 in [17]; 0.0234 in test [18]. For the same compound, the Bliss excess in test [20] is 0.0706.

The values are drawn from the supplement of paper PMC11061612.
